From ChEMBL document CHEMBL1131890, “Syntheses and evaluation of amidinobenzofuran derivatives as tryptase inhibitors” (Bioorg Med Chem Lett, 1999)

Experiments:
Tryptase [1] = biological target: T1, Tryptase (Homo sapiens, UniProt Q9BZJ3+Q15661+Q9NRR2); assay: Inhibition of tryptase activity; type: protein assay
[2] = Compound was tested for inhibitory activity against tryptase; parameters: species or system Homo sapiens
Prothrombin = Prothrombin (Homo sapiens, UniProt P00734); assay: Inhibition of thrombin
Tryptase [3] = biological target: T1, Tryptase; assay: Compound was tested for inhibitory activity against tryptase; Not determined (value more than […]); type: protein assay
Rattus norvegicus = assay: Effect of compound on PCA reaction in rats at a i.v. dose of 1 mg/kg 1 hr prior to antigen challenge; type: functional; conditions: route intravenous

| Ki (Tryptase [1]) [nM] | Ki (Prothrombin) [µM] | SMILES | further results |
| --- | --- | --- | --- |
| 23000 |  | N=C(N)NCCCCCC(=O)N1CCN(C(=O)COc2ccc(OCC(=O)N3CCN(C(=O)CCCCCNC(=N)N)CC3)cc2)CC1 |  |
|  | 85 | N=C(N)c1ccc2oc(C(=O)N3CCN(C(=O)CCCCCC(=O)N4CCN(C(=O)c5cc6cc(C(=N)N)ccc6o5)CC4)CC3)cc2c1 | Ki [2]: 0.0012 µM |
|  |  | O=C(CCC(=O)N1CCNCC1)CC(=O)N1CCN(C(=O)COc2ccc(OCC(=O)N3CCN(C(=O)CC(=O)CCC(=O)N4CCNCC4)CC3)cc2)CC1 | Ki (Tryptase [3]): Value more than 1x10^4 |
| 0.029 | 15 | N=C(N)c1ccc2oc(C(=O)N3CCN(C(=O)CO[C@H]4CCC[C@@H](OCC(=O)N5CCN(C(=O)c6cc7cc(C(=N)N)ccc7o6)CC5)CCC4)CC3)cc2c1 | inhibition in vivo at 1 mg/kg (Rattus norvegicus): 51% |
|  |  | O=C(CCCC(=O)N1CCNCC1)C(=O)N1CCN(C(=O)COc2ccc(OCC(=O)N3CCN(C(=O)C(=O)CCCC(=O)N4CCNCC4)CC3)cc2)CC1 | Ki (Tryptase [3]): Value more than 1x10^4 |
| 0.028 | 22 | N=C(N)c1ccc2sc(C(=O)N3CCN(C(=O)COc4ccc(OCC(=O)N5CCN(C(=O)c6cc7cc(C(=N)N)ccc7s6)CC5)cc4)CC3)cc2c1 |  |
|  | 28 | N=C(N)c1ccc2oc(C(=O)N3CCN(C(=O)COc4ccc(OCC(=O)NCc5ccccc5)cc4)CC3)cc2c1 | Ki [2]: 0.037 µM |
| 3000 |  | N=C(N)c1ccc2oc(C(=O)N3CCN(C(=O)COc4ccccc4)CC3)cc2c1 |  |
| 1100 |  | N=C(NCc1ccccc1)c1ccc2oc(C(=O)N3CCN(C(=O)COc4ccc(OCC(=O)N5CCN(C(=O)c6cc7cc(C(=N)NCc8ccccc8)ccc7o6)CC5)cc4)CC3)cc2c1 |  |
| 1100 | 24 | N=C(N)Nc1ccc2oc(C(=O)N3CCN(C(=O)COc4ccc(OCC(=O)N5CCN(C(=O)c6cc7cc(NC(=N)N)ccc7o6)CC5)cc4)CC3)cc2c1 |  |
| 0.046 | 29 | N=C(N)N1CCc2sc(C(=O)N3CCN(C(=O)COc4ccc(OCC(=O)N5CCN(C(=O)c6cc7c(s6)CCN(C(=N)N)C7)CC5)cc4)CC3)cc2C1 |  |
| 0.12 |  | N=C(N)c1ccc2oc(C(=O)N3CCN(C(=O)CCCCCCC(=O)N4CCN(C(=O)c5cc6cc(C(=N)N)ccc6o5)CC4)CC3)cc2c1 |  |
| 0.057 | 32 | N=C(N)c1ccc2oc(C(=O)N3CCN(C(=O)COc4ccc(OCC(=O)N5CCN(C(=O)c6cc7cc(C(=N)N)ccc7o6)CC5)cc4)CC3)cc2c1 |  |
|  | 5.3 | N=C(N)c1ccc2oc(C(=O)N3CCN(C(=O)COc4ccc(OCC(=O)Nc5ccc(-c6c[nH]cn6)cc5)cc4)CC3)cc2c1 | Ki [2]: 0.0068 µM |
| 13000 |  | N=C(N)NCCCCCCC(=O)N1CCN(C(=O)COc2ccc(OCC(=O)N3CCN(C(=O)CCCCCCNC(=N)N)CC3)cc2)CC1 |  |
|  | 23 | N=C(N)c1ccc2oc(C(=O)N3CCN(C(=O)CCCCC(=O)N4CCN(C(=O)c5cc6cc(C(=N)N)ccc6o5)CC4)CC3)cc2c1 | Ki [2]: 0.00086 µM |
| 80000 |  | N=C(N)NCCCCC(=O)N1CCN(C(=O)COc2ccc(OCC(=O)N3CCN(C(=O)CCCCNC(=N)N)CC3)cc2)CC1 |  |
| 1.1 | 88 | N=C(N)c1ccc2oc(C(=O)N3CCN(C(=O)COc4ccccc4OCC(=O)N4CCN(C(=O)c5cc6cc(C(=N)N)ccc6o5)CC4)CC3)cc2c1 |  |
|  | 32 | N=C(N)c1ccc2oc(C(=O)N3CCN(C(=O)CCCC(=O)N4CCN(C(=O)c5cc6cc(C(=N)N)ccc6o5)CC4)CC3)cc2c1 | Ki [2]: 0.0088 µM |
|  | 82 | N=C(N)c1ccc2oc(C(=O)N3CCN(C(=O)CC(=O)N4CCN(C(=O)c5cc6cc(C(=N)N)ccc6o5)CC4)CC3)cc2c1 | Ki [2]: 0.65 µM |
| 13000 |  | O=C(COc1ccc(OCC(=O)N2CCN(C(=O)CC(=O)N3CCNCC3)CC2)cc1)N1CCN(C(=O)CC(=O)N2CCNCC2)CC1 |  |
|  | 51 | N=C(N)c1ccc2oc(C(=O)N3CCN(C(=O)CCC(=O)N4CCN(C(=O)c5cc6cc(C(=N)N)ccc6o5)CC4)CC3)cc2c1 | Ki [2]: 0.015 µM |
| 970 |  | O=C(COc1ccc(OCC(=O)N2CCN(C(=O)c3cc4c(s3)CCNC4)CC2)cc1)N1CCN(C(=O)c2cc3c(s2)CCNC3)CC1 |  |
| 0.019 | 230 | N=C(N)c1ccc2oc(C(=O)N3CCN(C(=O)CCCCCCCC(=O)N4CCN(C(=O)c5cc6cc(C(=N)N)ccc6o5)CC4)CC3)cc2c1 |  |
| 6600 |  | CN(C)C(=N)c1ccc2oc(C(=O)N3CCN(C(=O)COc4ccc(OCC(=O)N5CCN(C(=O)c6cc7cc(C(=N)N(C)C)ccc7o6)CC5)cc4)CC3)cc2c1 |  |

| SMILES | Ki (Tryptase [1]) [nM] | Ki (Prothrombin) [µM] | further results |
| --- | --- | --- | --- |
| N=C(N)c1ccc2oc(C(=O)N3CCN(C(=O)COc4ccc(OCC(=O)N5CCCCC5)cc4)CC3)cc2c1 | 60 |  |  |
| N=C(N)c1ccc2oc(C(=O)N3CCN(C(=O)COc4ccc(OCC(=O)N5CCNCC5)cc4)CC3)cc2c1 | 67 |  |  |
| N=C(N)c1ccc2oc(C(=O)N3CCN(C(=O)N4CCN(C(=O)c5cc6cc(C(=N)N)ccc6o5)CC4)CC3)cc2c1 | 460 |  |  |
| CCOC(=O)COc1ccc(OCC(=O)N2CCN(C(=O)c3cc4cc(C(=N)N)ccc4o3)CC2)cc1 | 210 |  |  |
